Assay results published in patent US10160766B1, “Benzopyranyl tetracycle compound and pharmaceutical composition having excellent anti-inflammatory effect comprising the same” (Spark Biopharma, Inc., priority 2017, dated 2018).

Assays:
Type in all cases: cell-based
[1] = test system: NO release in Raw264.7 cells; experiment: Griess assay, inhibition of nitric oxide release; details: for NO Inhibition rate (%): 100 ng/mL LPS and compounds 24 hours, compared with control group; for inhibitory effect on NO release, in words, compared with Compound 1d: 100 ng/mL LPS, 24 hours
Description: Thus, the Griess assay was used to measure nitric oxide secretion for inflammation inhibition in Raw264.7 cells.
Raw 264.7 macrophage cell was cultured in Dulbecco Modified Eagle Medium (DMEM) with 10% (v/v) fetal bovine serum (FBS) and 1% (v/v) antibiotic-anti mycotic solution.
Cell was maintained in a 100 mm cell culture dish under cell culture conditions (5% CO2 incubator at 37° C. with humidified atmosphere).
Griess assay reagent was generated prior to the assay with the following contents listed below: N-(1-naphthyl) ethylenediamine dihydrochloride, 0.1% (m/v); sulfanilamide, 1% (m/v); phosphoric acid (85%); 5% (v/v) in deionized water.
Raw 264.7 cell was seeded in transparent 96-well plate and maintained for 1 day. Media was aspirated, and each well was washed with serum free DMEM for twice. Each well was refilled with serum-free DMEM.
Then 100 ng/mL LPS and compounds were treated afterward and cultured for 24 hours. After the incubation, the supernatant culture media was transferred to new 96-well plate and mixed with 50 μL of Griess assay reagent.
Media-reagent mixture was incubated at room temperature for several minutes. Absorbance was read at 548 nm. Four wells each were used for the control experiment, LPS and DMSO (without any compounds) treated well, and DMSO-only treated well. Blank values were measured.
Blank values were measured by mixing 50 μL of Griess assay reagent with […] and 1% antibiotic-antimycotic containing DMEM.
As for the compounds in which the double bond of the tetrahydropyridazine ring in Compound 1d is moved or eliminated, the inhibition rate of NO release was measured in the same manner as in Test Example 2.
The inhibition rate of NO release for Compounds 2a to 2o prepared in Example 2 was tested in order to confirm the anti-inflammatory effect for the above compounds.

Raw 264.7 cell = experiment: WST (water-soluble tetrazolium) analysis, relative cell viability; details: 100 ng/mL LPS and compounds 24 hours
Description: Relative cell viability of Compound 2a to 2o prepared in Examples 2 was measured by WST (water-soluble tetrazolium) analysis.
Raw 264.7 cell was seeded in transparent 96-well plate and maintained for 1 day.
Media was aspirated, and each well was washed with serum free DMEM for twice. Each well was refilled with serum-free DMEM. Then, 100 ng/mL LPS and compounds were treated afterward and cultured for 24 hours. After the incubation, the supernatant culture media was transferred to new 96-well plate.
Immediately after transferring media, cell-seeded wells were refilled with 100 μL of 10% FBS and 1% antibiotic-antimycotic containing DMEM. Then, 10 μL of Ez-cytox WST assay reagent was used to treat each well, following the manufacturer's protocol.
After incubating for 20 min in a 5% CO2 incubator at 37° C. with humidified atmosphere, absorbance was read at 450 nm.
Blank values were obtained from the well only treated with 10% FBS and 1% antibiotic-antimycotic containing DMEM.

[2] = test system: TNF-α secretion in Raw264.7 cell; experiment: ELISA of secreted TNF-α; details: Mus musculus, LPS 100 ng/mL, compounds 10 μM, read-out: TNF-α Inhibition Rate (%)
Description: Thus, in order to additionally confirm the inflammation inhibitory effects of Compounds 2f to 2l, the inhibition rate of TNF-α secretion was quantitatively measured by ELISA.
Cells were treated with each Compound 1d, or 2f to 2l, and LPS for 24 hours, followed by ELISA for TNF-α present in the culture solution.
In order to measure the amount of secreted TNF-α, Raw264.7 cell was seeded in transparent 96-well plate and maintained for 1 day. Media was aspirated after 1 day and replaced to serum-free DMEM with 1% (v/v) antibiotic-antimycotic solution. LPS and compounds were treated in a final concentration of 100 ng/mL and 10 μM.
Standard curve was plotted by the dose-dependent treatment of the control TNF-α protein provided with the ELISA kit. Blank value was measured by adding solutions without TNF-α substrate.
The TNF-α secretion inhibition rate of Compounds 1d, and 2f to 2l was confirmed, when compared with control groups.

| Structure (SMILES) | NO Inhibition rate (%) [1] [%] | inhibitory effect on NO release, in words, compared with Compound 1d [1] | Relative Cell Viability (%) (Raw 264.7 cell) | inhibition at 10 µM [2] [%] |
| --- | --- | --- | --- | --- |
| CC1(C)Oc2ccccc2C2C1=CCn1c(=O)n(-c3ccccc3)c(=O)n12 (stereo not shown) [Compound 1a] | 83 | – | – | – |
| CNc1ccc2c(c1)OC(C)(C)C1=CCn3c(=O)n(-c4ccccc4)c(=O)n3C12 (stereo not shown) [Compound 1b] | 52 | – | – | – |
| CC1(C)Oc2cc(F)ccc2C2C1=CCn1c(=O)n(-c3ccccc3)c(=O)n12 (stereo not shown) [Compound 1c] | 79 | – | – | – |
| COc1ccc2c(c1)OC(C)(C)C1=CCn3c(=O)n(-c4ccccc4)c(=O)n3C12 (stereo not shown) [Compound 1e] | 44 | – | – | – |
| COc1ccc2c(c1)C1C(=CCn3c(=O)n(-c4ccccc4)c(=O)n31)C(C)(C)O2 (stereo not shown) [Compound 1f] | 55 | – | – | – |
| COc1cc2c(cc1OC)C1C(=CCn3c(=O)n(-c4ccccc4)c(=O)n31)C(C)(C)O2 (stereo not shown) [Compound 1g] | 44 | – | – | – |
| COc1ccc2c(c1O)OC(C)(C)C1=CCn3c(=O)n(-c4ccccc4)c(=O)n3C12 (stereo not shown) [Compound 1h] | 26 | – | – | – |
| CCCN1CCC2(CC1)Oc1cc(O)ccc1C1C2=CCn2c(=O)n(-c3ccccc3)c(=O)n21 (stereo not shown) [Compound 1i] | 47 | significantly reduced | – | – |
| CC(=O)N1CCC2(CC1)Oc1cc(O)ccc1C1C2=CCn2c(=O)n(-c3ccccc3)c(=O)n21 (stereo not shown) [Compound 1j] | 36 | significantly reduced | – | – |
| Cn1c(=O)n2n(c1=O)C1C(=CC2)C(C)(C)Oc2cc(O)ccc21 (stereo not shown) [Compound 2a] | 45 | – | 114 | – |
| CC1(C)Oc2cc(O)ccc2C2C1=CCn1c(=O)n(Cc3ccccc3)c(=O)n12 (stereo not shown) [Compound 2b] | 70 | – | 106 | – |
| CC1(C)Oc2cc(O)ccc2C2C1=CCn1c(=O)n(C3CCCCC3)c(=O)n12 (stereo not shown) [Compound 2c] | 63 | – | 117 | – |
| CC1(C)Oc2cc(O)ccc2C2C1=CCn1c(=O)n(-c3ccccc3I)c(=O)n12 (stereo not shown) [Compound 2d] | – | – | 109 | – |
| COc1ccccc1-n1c(=O)n2n(c1=O)C1C(=CC2)C(C)(C)Oc2cc(O)ccc21 (stereo not shown) [Compound 2e] | – | – | 115 | – |
| COc1cccc(-n2c(=O)n3n(c2=O)C2C(=CC3)C(C)(C)Oc3cc(O)ccc32)c1 (stereo not shown) [Compound 2f] | 96 | – | 118 | 38 |
| COc1ccc(-n2c(=O)n3n(c2=O)C2C(=CC3)C(C)(C)Oc3cc(O)ccc32)cc1 (stereo not shown) [Compound 2g] | 89 | – | 127 | 44 |
| CC1(C)Oc2cc(O)ccc2C2C1=CCn1c(=O)n(-c3ccc(F)cc3)c(=O)n12 (stereo not shown) [Compound 2h] | 87 | – | 109 | 44 |
| Cc1ccc(-n2c(=O)n3n(c2=O)C2C(=CC3)C(C)(C)Oc3cc(O)ccc32)cc1 (stereo not shown) [Compound 2i] | 94 | – | 130 | 45 |
| CC1(C)Oc2cc(O)ccc2C2C1=CCn1c(=O)n(-c3ccc4c(c3)OCO4)c(=O)n12 (stereo not shown) [Compound 2k] | 92 | – | 121 | 46 |
| CC1(C)Oc2cc(O)ccc2C2C1=CCn1c(=O)n(-c3ccc(C(F)(F)F)cc3)c(=O)n12 (stereo not shown) [Compound 2m] | 85 | – | 106 | – |
| CC1(C)Oc2cc(O)ccc2C2C1=CCn1c(=O)n(-c3ccc(C(C)(C)C)cc3)c(=O)n12 (stereo not shown) [Compound 2n] | 99 | – | 105 | – |
| CCCCc1ccc(-n2c(=O)n3n(c2=O)C2C(=CC3)C(C)(C)Oc3cc(O)ccc32)cc1 (stereo not shown) [Compound 2o] | 99 | – | 50 | – |
